From US7629332B2, “Nitrophenyl mustard and nitrophenylaziridine alcohols and their corresponding phosphates and their use as targeted cytotoxic agents” (Auckland Uniservices Limited, priority 2003, dated 2009)
Entries after “also recorded” stand apart in the source; their conditions may differ.

How the values were obtained:
A549 (P450R+ve) = experiment: Cell proliferation (sulphorhodamine B) IC50, P450R-transfected A549 human lung cells, anoxia vs 20% O2; assay type: cell-based
in vivo = conditions: mouse
WiDr (NTR+ve) = experiment: Cell proliferation (sulphorhodamine B) IC50, NTR-transfected WiDr human colon cells; assay type: cell-based
[1] = tested on: WiDr human colon carcinoma xenografts (90% NTR-ve and 10% NTR+ve); experiment: WiDr in vivo growth delay assay, mixed WiDr WT / WiDr NTR xenografts; conditions: single dose at MTD (750 μmol/kg), xenografts treated at 300 mm3
Excerpt: FIG. 2a depicts in vivo activity of compound IIb-7 and its corresponding phosphate pre-prodrug, Ib-7P, against human colon carcinoma xenografts grown by inoculating mixtures of 90% NTR−ve and 10% NTR+ve Wi Dr cells;
FIG. 2b are plots of % animals survival versus time (days), in which open circles denote wild-type WiDR human colon carcinoma xenografts, and filled circles denote tumours containing WiDr cells transfected with the E. coli NTR gene;
In the WiDr in vivo growth delay assay, xenografts containing mixtures of WiDr^WT and WiDr^NTR cells are grown to 300 mm^3 and treated with a single dose of prodrug at its MTD. Tumour growth is monitored over time and animals are euthanased when mean tumour volume >1600 mm^3. Data is presented as time to death.

[2] = tested on: SiHa human tumour xenografts; experiment: SiHa xenograft excision / clonogenic assay, with or without 15 Gy radiation; assay type: in vivo; conditions: 75% of MTD, single i.p. dose, no radiation, relative to vehicle controls, excision 18 h
Rif-1 tumour = experiment: In vivo excision assay with the Rif-1 tumour (15 Gy)
Method: FIG. 1b depicts an excision assay method: 300-500 mg Rif-1 xenograft→ 15 Gy→ Single prodrug dose @ MTD→ 18 hr→ excision→ disaggregate→ plate 10^2-10^5 cells→ 12 days→ colonies counted;
This employs an in vivo excision assay with the Rif-1 tumour, where the oxic tumour cells are sterilised using 15 Gy of radiation, and the cytotoxicity of an agent against the remaining hypoxic cells can be quantitated. […] Thus Ib-7P acts as a hypoxia-selective cytotoxin in vivo.

Q: For O=C(NCCO)c1cc([N+](=O)[O-])cc([N+](=O)[O-])c1N(CCBr)CCBr [IIb-7, 2-[Bis(2-Bromoethyl)Amino]-N-(2-Hydroxyethyl)-3,5-Dinitrobenzamide], which “A549 (P450R+ve) 20% O2/anoxia IC50 Ratio” value (A549 (P450R+ve); 4 h, sensitivity ratio for hypoxia) is on record?
A: 56

Q: And the IC50 (A549 (P450R+ve); A549, 4 h drug exposure under 0% oxygen)?
A: 800 nM

Q: And the MTD (in vivo)?
A: 1000 µmol/kg

Q: What about the “WiDr WT:NTR IC50 Ratio” value (WiDr (NTR+ve); 4 h, sensitivity ratio for NTR expression) of the same compound?
A: 61

Q: And the IC50 (WiDr (NTR+ve); WiDr, 4 h drug exposure, growth 5 further days)?
A: 300 nM

Q: And the over-all survival [1]?
A: 6%

Q: And the “time to first treatment failure” value [1]?
A: 17 days

Q: For O=C(NCCOP(=O)(O)O)c1cc([N+](=O)[O-])cc([N+](=O)[O-])c1N(CCBr)CCBr [Ib-7P, 2-[[2-[Bis(2-Bromoethyl)Amino]-3,5-Dinitrobenzoyl]Amino]Ethyl Dihydrogen Phosphate], which “Log kill, cmpd only, Mean ± sem” value [2] is on record?
A: 1.20 ± 0.07

Q: What about the MTD (in vivo; CD-1 nude, ip) of the same compound?
A: 750 µmol/kg

Q: What about the MTD (in vivo) of the same compound?
A: 750 µmol/kg

Q: And the “Activity against hypoxic cells, Rif-1 excision assay” value (Rif-1 tumour; single dose at MTD after 15 Gy)?
A: exceed that of its parent alcohol (IIb-7); also recorded: more active against hypoxic cells than the reference hypoxic cytotoxin tirapazamine

Q: What about the “Activity against oxic tumour cells, Rif-1 excision assay” value (Rif-1 tumour; single dose at MTD without radiation) of the same compound?
A: significant

Q: And the over-all survival [1]?
A: 40%

Q: And the “time to first treatment failure” value [1]?
A: 77 days
